Reference: Sander's compilation of Henry's law constants (doi:10.1007/bf00475967)

assay: Henry solubility constant Hcp at 295 K (mol/(m3 Pa)); settings: reference: Hellmann (1987)

SMILES | Henry solubility constant Hcp at 295 K
c1ccccc1 [benzene] | 0.002
CC(C)=O [propanone] | 0.14
ClCCl [dichloromethane] | 0.0057
ClC(Cl)=C(Cl)Cl [tetrachloroethene] | 0.00077
ClC(Cl)(Cl)Cl [tetrachloromethane] | 0.00033
O=[N+]([O-])c1ccccc1 [nitrobenzene] | 0.14
CCCCCOC(C)=O [pentyl ethanoate] | 0.034
Clc1ccccc1 [chlorobenzene] | 0.0029
Clc1cc(Cl)cc(Cl)c1 [1,3,5-trichlorobenzene] | 0.035
O=[N+]([O-])c1ccc(Cl)cc1 [4-chloronitrobenzene] | 0.18
ClC=C(Cl)Cl [trichloroethene] | 0.00098
CC(=O)CC(C)C [4-methyl-2-pentanone] | 0.065
